Results taken from US10499640B2, “Herbicidal compounds” (SYNGENTA PARTICIPATIONS AG, priority 2014, dated 2019).

Tests used:
Assay type in all cases: in vivo
Zea mays (ZEAMX) [1] = assay: Pre-emergence herbicidal activity, glasshouse pot test; conditions: Rate 1000 g/Ha; sprayed one day after sowing; evaluated after 13 days; scale 0-5
Experimental: (§1) Seeds of a variety of test species were sown in standard soil in pots. After cultivation for one day (pre-emergence) under controlled conditions in a glasshouse (at 24/16° C., day/night; 14 hours light; 65% humidity), the plants were sprayed with an aqueous spray solution derived from the formulation of the technical active ingredient in acetone/water (50:50) solution containing 0.5% Tween 20 (polyoxyethelyene sorbitan monolaurate, CAS RN 9005-64-5). The test plants were then grown in a glasshouse under controlled conditions (at 24/16° C., day/night; 14 hours light; 65% humidity) and watered twice daily. After 13 days, the test was evaluated (5=total damage to plant; 0=no damage to plant).

Setaria faberi (SETFA) [2] = assay: as above; set-up: key: 5=total damage to plant; 0=no damage to plant; conditions: Rate 1000 g/Ha; sprayed one day after sowing; evaluated after 13 days; scale 0-5
Experimental: as §1

[3] = test system: Amaranthus retroflexus (AMARE); assay: as above; set-up: key: 5=total damage to plant; 0=no damage to plant; conditions: Rate 1000 g/Ha; sprayed one day after sowing; evaluated after 13 days; scale 0-5
Experimental: as §1

[4] = test system: Abutilon theophrasti (ABUTH); assay: as above; set-up: key: 5=total damage to plant; 0=no damage to plant; conditions: Rate 1000 g/Ha; sprayed one day after sowing; evaluated after 13 days; scale 0-5
Experimental: as §1

[5] = test system: Echinochloa crus-galli (ECHCG); assay: as above; set-up: key: 5=total damage to plant; 0=no damage to plant; conditions: Rate 1000 g/Ha; sprayed one day after sowing; evaluated after 13 days; scale 0-5
Experimental: as §1

[6] = test system: Alopecurus myosuroides (ALOMY); assay: as above; set-up: key: 5=total damage to plant; 0=no damage to plant; conditions: Rate 1000 g/Ha; sprayed one day after sowing; evaluated after 13 days; scale 0-5
Experimental: as §1

Zea mays (ZEAMX) [7] = assay: Post-emergence herbicidal activity, glasshouse pot test; set-up: key: 5=total damage to plant; 0=no damage to plant; conditions: Rate 1000 g/Ha; sprayed after 8 days cultivation; evaluated after 13 days; scale 0-5
Experimental: (§2) Seeds of a variety of test species were sown in standard soil in pots. After 8 days cultivation (post-emergence) under controlled conditions in a glasshouse (at 24/16° C., day/night; 14 hours light; 65% humidity), the plants were sprayed with an aqueous spray solution derived from the formulation of the technical active ingredient in acetone/water (50:50) solution containing 0.5% Tween 20 (polyoxyethelyene sorbitan monolaurate, CAS RN 9005-64-5). The test plants were then grown in a glasshouse under controlled conditions (at 24/16° C., day/night; 14 hours light; 65% humidity) and watered twice daily. After 13 days, the test was evaluated (5=total damage to plant; 0=no damage to plant).

Setaria faberi (SETFA) [8] = assay: as above; set-up: key: 5=total damage to plant; 0=no damage to plant; conditions: Rate 1000 g/Ha; sprayed after 8 days cultivation; evaluated after 13 days; scale 0-5
Experimental: as §2

[9] = test system: Amaranthus retroflexus (AMARE); assay: as above; set-up: key: 5=total damage to plant; 0=no damage to plant; conditions: Rate 1000 g/Ha; sprayed after 8 days cultivation; evaluated after 13 days; scale 0-5
Experimental: as §2

[10] = test system: Abutilon theophrasti (ABUTH); assay: as above; set-up: key: 5=total damage to plant; 0=no damage to plant; conditions: Rate 1000 g/Ha; sprayed after 8 days cultivation; evaluated after 13 days; scale 0-5
Experimental: as §2

[11] = test system: Echinochloa crus-galli (ECHCG); assay: as above; set-up: key: 5=total damage to plant; 0=no damage to plant; conditions: Rate 1000 g/Ha; sprayed after 8 days cultivation; evaluated after 13 days; scale 0-5
Experimental: as §2

[12] = test system: Alopecurus myosuroides (ALOMY); assay: as above; set-up: key: 5=total damage to plant; 0=no damage to plant; conditions: Rate 1000 g/Ha; sprayed after 8 days cultivation; evaluated after 13 days; scale 0-5
Experimental: as §2

| SMILES | ZEAMX damage score, application pre-emergence (Zea mays (ZEAMX) [1]) | SETFA damage score, application pre-emergence (Setaria faberi (SETFA) [2]) | AMARE damage score, application pre-emergence [3] | ABUTH damage score, application pre-emergence [4] | ECHCG damage score, application pre-emergence [5] | ALOMY damage score, application pre-emergence [6] | ZEAMX damage score, application post-emergence (Zea mays (ZEAMX) [7]) | SETFA damage score, application post-emergence (Setaria faberi (SETFA) [8]) | AMARE damage score, application post-emergence [9] | ABUTH damage score, application post-emergence [10] | ECHCG damage score, application post-emergence [11] | ALOMY damage score, application post-emergence [12] |
| --- | --- | --- | --- | --- | --- | --- | --- | --- | --- | --- | --- | --- |
| CON1C(=O)N(c2cc(C(C)(C)F)on2)C(O)C1C (centres unmarked) [Compound A1, 1-[5-(1-fluoro-1-methyl-ethyl)isoxazol-3-yl]-5-hydroxy-3-methoxy-4-methyl-imidazolidin-2-one] | 2 | 4 | 5 | 5 | 4 | 4 | 5 | 5 | 5 | 5 | 5 | 5 |
| CC1C(O)N(c2cc(C(C)(C)F)on2)C(=O)N1C (centres unmarked) [Compound A2, 1-[5-(1-fluoro-1-methyl-ethyl)isoxazol-3-yl]-5-hydroxy-3,4-dimethyl-imidazolidin-2-one] | 2 | 4 | 5 | 5 | 4 | 4 | 5 | 5 | 5 | 5 | 5 | 5 |
| CN1CC(O)N(c2cc(C(C)(C)F)on2)C1=O (centres unmarked) [Compound A3] | 2 | 4 | 5 | 5 | 5 | 4 | 5 | 5 | 5 | 5 | 5 | 5 |
| CN1CC(O)N(c2cc(C(C)(C)C#N)on2)C1=O (centres unmarked) [Compound A4] | 4 | 5 | 5 | 5 | 5 | 4 | 5 | 5 | 5 | 5 | 5 | 5 |
| CC1C(O)N(c2cc(C(C)(C)C#N)on2)C(=O)N1C (centres unmarked) [Compound A5] | 3 | 5 | 5 | 5 | 5 | 4 | 5 | 5 | 5 | 5 | 5 | 5 |
| CC1NC(=O)N(c2cc(C(C)(C)C#N)on2)C1O (centres unmarked) [Compound A7] | 2 | 4 | 5 | 5 | 4 | 4 | 3 | 4 | 5 | 5 | 4 | 4 |
| CON1C(=O)N(c2cc(C(C)(C)F)no2)C(O)C1C (centres unmarked) [Compound A18] | 2 | 5 | 5 | 5 | 5 |  | 4 | 5 | 5 | 5 | 5 |  |
| CCOC1C(O)N(c2cc(C(C)(C)F)no2)C(=O)N1C (centres unmarked) [Compound A19] | 2 | 4 | 5 | 4 | 5 |  | 4 | 5 | 5 | 5 | 5 |  |
| C[C@@H]1C(O)N(c2cc(C(C)(C)F)no2)C(=O)N1C (some centres unmarked) [Compound A20] | 3 | 4 | 5 | 5 | 5 |  | 4 | 5 | 5 | 5 | 5 |  |
| CC(C)(C)c1cc(N2C(=O)N3COCC3C2O)no1 (centres unmarked) [Compound A21] | 3 | 5 | 5 | 5 | 5 |  | 4 | 5 | 5 | 5 | 5 |  |
| CC(C)(C)c1cc(N2C(=O)N3CCCC3C2O)no1 (centres unmarked) [Compound A25] | 4 | 4 | 5 | 5 | 5 |  | 5 | 5 | 5 | 5 | 5 |  |
